pIC50: −log10 of the molar value. Like-named read-outs stand apart in the source and are kept apart here. Peptide text beside a SMILES is read from it. * marks the point of attachment. Cbz = O=C(OCc1ccccc1)*
Tests used:
[1] = test system: GS-9005 hydrolase B; type: biochemical, human
[2] = target: GS-9005 hydrolase A; type: biochemical, human; conditions: pH 6.5; read-out: Inhibition profile IC50, 9005 Hydrolase A
[3] = pH 6.5, read-out: Inhibition profile IC50, 9005 Hydrolase B
[4] = read-out: concentration at which GS-9005 hydrolase B is inhibited by 50%

Structure (SMILES) | inhibition of GS-9005 hydrolase B (in words) [1] | pIC50 [1, 3] | pIC50 [1, 4] | pIC50 [2]
O=c1oc(Cl)c(Cl)c2ccccc12 [3,4 DCI, 3,4 dichloroisocoumarin] | inhibited | 5.40 | ~5.40 | < 3.82
O=C[C@@H]1CCCN1C(=O)[C@@H]1CCCN1C(=O)OCc1ccccc1 [Cbz-pro-pro-COH, Carboxybenzoyl-Pro-Pro-COH] (Cbz-Pro-Pro-aldehyde) | – | < 4.00 | < 4.00 | –
CCOP(=O)(OCC)Oc1ccc([N+](=O)[O-])cc1 [paraoxon] | – | 7.70 | ~7.70 | 7.52
